In brackets after ≈: the same amount, converted by molar mass. Read-outs that look alike come from different tables or passages of the source.
Columns and labels:
Streptococcus pneumoniae = assay: MIC, microdilution method in 96-well plates; type: cell-based; details: read-out: MIC Streptococcus pneumoniae
Description: (§1) Minimum inhibitory concentrations (MICs) were determined using the microdilution method in 96-well format plates. Each of the compounds of Examples was dissolved in dimethyl sulfoxide to a concentration of 2 mg/mL and stored at 4° C. until used. They were diluted in Mueller-Hinton Broth (MHB) and used for MIC determination. The range of concentrations tested was […] final concentration using a two-fold dilution system. Plates were incubated at 37° C. and MIC were recorded after 24 hours of incubation for bacteria.
(§2) Linezolid and vancomycin were used as standard antibiotics, respectively.

Streptococcus pyogenes = assay: MIC, microdilution method in 96-well plates; type: cell-based; details: read-out: MIC Streptococcus pyogenes
Description: as §1, §2

[1] = test system: Methicillin-resistant Staphylococcus aureus; assay: MIC, microdilution method in 96-well plates; type: cell-based; details: read-out: MIC Methicillin-resistant Staphylococcus aureus
Description: as §1, §2

Streptococcus agalactiae = assay: MIC, microdilution method in 96-well plates; type: cell-based; details: read-out: MIC Streptococcus agalactiae
Description: as §1, §2

[2] = test system: Vancomycin-resistant Enterococcus faecalis; assay: MIC, microdilution method in 96-well plates; type: cell-based; details: read-out: MIC Vancomycin-resistant Enterococcus faecalis
Description: as §1, §2

[3] = Acute toxicity study in mice; details: male, mouse, in vivo, 4000 mg/kg; ICR mice (♂, 4 weeks), oral 4,000 mg/kg dose, observed for 14 days
Description: The acute toxicity of the compounds of Example 7, 13, 18 and 47 were tested using several groups of ICR mice each of 6 mice.

[4] = Mueller-Hinton Broth, 37° C., 24 hours of incubation

| Compound | MIC (Streptococcus pneumoniae; [4]) [µg/mL] | MIC (Streptococcus pyogenes; [4]) [µg/mL] | MIC [1, 4] [µg/mL] | MIC (Streptococcus agalactiae; [4]) [µg/mL] | MIC [2, 4] [µg/mL] | LD50 at 14 days [3] [mg/kg] | MIC (Streptococcus pneumoniae; 24 h) [µg/mL] | MIC (Streptococcus pyogenes; 24 h) [µg/mL] | MIC ([1]; 24 h) [µg/mL] | MIC (Streptococcus agalactiae; 24 h) [µg/mL] | MIC ([2]; 24 h) [µg/mL] |
| --- | --- | --- | --- | --- | --- | --- | --- | --- | --- | --- | --- |
| CC(C)(C)[C@H](NC(=O)[C@@H](CC(=O)NO)CC1CCCC1)C(=O)N1CCC(NC(=O)Cc2ccccc2)CC1 [Example 10, (R)-2-Cyclopentylmethyl-N^1-[(S)-2,2-dimethyl-1-(4-phenylacetylamino-piperidine-1-carbonyl)-propyl]-N^4-hydroxy-succinamide] | 50 (≈ 94.6 µM) | 0.8 (≈ 1.51 µM) | 50 (≈ 94.6 µM) | 0.2 (≈ 0.378 µM) | 50 (≈ 94.6 µM) | – | – | – | – | – | – |
| CC(C)(C)[C@H](NC(=O)[C@@H](CC(=O)NO)CC1CCCC1)C(=O)N1CCC(NC(=O)c2ccccc2)CC1 [Example 8, (R)-N^1-[(S)-1-(4-Benzoylamino-piperidine-1-carbonyl)-2,2-dimethyl-propyl]-2-cyclopentylmethyl-N^4-hydroxy-succinamide] | 6.3 (≈ 12.2 µM) | 1.6 (≈ 3.11 µM) | 12.5 (≈ 24.3 µM) | 1.6 (≈ 3.11 µM) | 25 (≈ 48.6 µM) | – | – | – | – | – | – |
| Cc1ccc(NC(=O)NC2CCN(C(=O)[C@@H](NC(=O)[C@H](CC3CCCC3)CN(O)C=O)C(C)(C)C)CC2)cc1 [Example 47, (R)-2-Cyclopentylmethyl-N-{(S)-2,2-dimethyl-1-[4-(3-p-tolyl-ureido)-piperidine-1-carbonyl]-propyl}-3-(formyl-hydroxy-amino)-propionamide] | – | – | – | – | – | > 4000 | – | – | – | – | – |
| Cc1ccc(C(=O)NC2CCN(C(=O)[C@@H](NC(=O)[C@H](CC3CCCC3)CN(O)C=O)C(C)(C)C)CC2)cc1 [Example 38, N-(1-[(S)-2-[(R)-2-Cyclopentylmethyl-3-(formyl-hydroxy-amino)-propionylamino]-3,3-dimethyl-butyryl}-piperidin-4-yl)-4-methyl-benzamide] | 1.6 (≈ 3.03 µM) | 3.1 (≈ 5.86 µM) | 6.3 (≈ 11.9 µM) | 0.1 (≈ 0.189 µM) | 3.1 (≈ 5.86 µM) | – | – | – | – | – | – |
| CC(C)(C)[C@H](NC(=O)[C@@H](CC(=O)NO)CC1CCCC1)C(=O)N1CCC(NC(=O)c2ccc(F)cc2)CC1 [Example 15, (R)-2-Cyclopentylmethyl-N^1-{(S)-1-[4-(4-fluoro-benzoylamino)-piperidine-1-carbonyl]-2,2-dimethyl-propyl}-N^4-hydroxy-succinamide] | 6.3 (≈ 11.8 µM) | 0.2 (≈ 0.375 µM) | 6.3 (≈ 11.8 µM) | 0.2 (≈ 0.375 µM) | 6.3 (≈ 11.8 µM) | – | – | – | – | – | – |
| CCCC[C@H](CC(=O)NO)C(=O)N[C@H](C(=O)N1CCC(NC(=O)c2ccc(C)cc2)CC1)C(C)(C)C [Example 18, (R)-2-Butyl-N^1-{(S)-2,2-dimethyl-1-[4-(4-methyl-benzoylamino)-piperidine-1-carbonyl]-propyl}-N^4-hydroxy-succinamide] | – | – | – | – | – | > 4000 | – | – | – | – | – |
| CC(C)(C)[C@H](NC(=O)[C@H](CC1CCCC1)CN(O)C=O)C(=O)N1CCC(NC(=O)c2ccc(F)cc2)CC1 [Example 30, N-(1-{(S)-2-[(R)-2-Cyclopentylmethyl-3-(formyl-hydroxy-amino)-propionylamino]-3,3-dimethyl-butyryl}-piperidin-4-yl)-4-fluoro-benzamide] | 1.6 (≈ 3 µM) | 0.2 (≈ 0.375 µM) | 6.3 (≈ 11.8 µM) | 0.2 (≈ 0.375 µM) | 6.3 (≈ 11.8 µM) | – | – | – | – | – | – |
| CC(C)(C)[C@H](NC(=O)[C@@H](CC(=O)NO)CC1CCCC1)C(=O)N1CCC(NC(=O)c2ccc(C(F)(F)F)cc2)CC1 [Example 13, (R)-2-Cyclopentylmethyl-N^1-{(S)-2,2-dimethyl-1-[4-(4-trifluoromethyl-benzoylamino)-piperidine-1-carbonyl]-propyl}-N^4-hydroxy-succinamide] | 3.1 (≈ 5.32 µM) | 0.4 (≈ 0.687 µM) | 12.5 (≈ 21.5 µM) | 0.2 (≈ 0.343 µM) | 6.3 (≈ 10.8 µM) | > 4000 | – | – | – | – | – |
| Cc1ccc(C(=O)NC2CCN(C(=O)[C@@H](NC(=O)[C@@H](CC(=O)NO)CC3CCCC3)C(C)(C)C)CC2)cc1 [Example 20, (R)-2-Cyclopentylmethyl-N^1-{(S)-2,2-dimethyl-1-[4-(4-methyl-benzoylamino)-piperidine-1-carbonyl]-propyl}-N^4-hydroxy-succinamide] | 0.8 (≈ 1.51 µM) | 0.4 (≈ 0.757 µM) | 25 (≈ 47.3 µM) | 0.4 (≈ 0.757 µM) | 12.5 (≈ 23.6 µM) | – | – | – | – | – | – |
| CC(C)(C)[C@H](NC(=O)[C@H](CC1CCCC1)CN(O)C=O)C(=O)N1CCC(NC(=O)Nc2ccc(C(F)(F)F)cc2)CC1 [Example 48, (R)-2-Cyclopentylmethyl-N-((S)-2,2-dimethyl-1-{4-[3-(4-trifluoromethyl-phenyl)-ureido)-piperidine-1-carbonyl}-propyl)-3-(formyl-hydroxy-amino)-propionamide] | 1.6 (≈ 2.68 µM) | 0.2 (≈ 0.335 µM) | 6.3 (≈ 10.5 µM) | 0.2 (≈ 0.335 µM) | 3.1 (≈ 5.19 µM) | – | – | – | – | – | – |
| CC(C)(C)[C@H](NC(=O)[C@H](CC1CCCC1)CN(O)C=O)C(=O)N1CCC(NC(=O)c2cc(F)c(F)cc2F)CC1 [Example 44, N-(1-{(S)-2-[(R)-2-Cyclopentylmethyl-3-(formyl-hydroxy-amino)-propionylamino]-3,3-dimethyl-butyryl}-piperidin-4-yl)-2,4,5-trifluoro-benzamide] | 1.6 (≈ 2.81 µM) | 0.2 (≈ 0.352 µM) | 3.1 (≈ 5.45 µM) | 0.2 (≈ 0.352 µM) | 3.1 (≈ 5.45 µM) | – | – | – | – | – | – |
| COc1ccc(C(=O)NC2CCN(C(=O)[C@@H](NC(=O)[C@H](CC3CCCC3)CN(O)C=O)C(C)(C)C)CC2)cc1 [Example 39, N-(1-{(S)-2-[(R)-2-Cyclopentylmethyl-3-(formyl-hydroxy-amino)-propionylamino]-3,3-dimethyl-butyryl}-piperidin-4-yl)-4-methoxy-benzamide] | 3.1 (≈ 5.69 µM) | 0.2 (≈ 0.367 µM) | 12.5 (≈ 22.9 µM) | 0.2 (≈ 0.367 µM) | 6.3 (≈ 11.6 µM) | – | – | – | – | – | – |
| CC(C)(C)[C@H](NC(=O)[C@H](CC1CCCC1)CN(O)C=O)C(=O)N1CCC(NS(=O)(=O)c2ccc(C(F)(F)F)cc2)CC1 [Example 50, (R)-2-Cyclopentylmethyl-N-{(S)-2,2-dimethyl-1-[4-(4-trifluoromethyl-benzenesulfonylamino)-piperidine-1-carbonyl]-propyl}-3-(formyl-hydroxy-amino)-propionamide] | 1.6 (≈ 2.59 µM) | 0.4 (≈ 0.646 µM) | 6.3 (≈ 10.2 µM) | 0.4 (≈ 0.646 µM) | 3.1 (≈ 5.01 µM) | – | – | – | – | – | – |
| CC(C)(C)[C@H](NC(=O)[C@H](CC1CCCC1)CN(O)C=O)C(=O)N1CCC(NC(=O)c2ccccc2)CC1 [Example 25, N-(1-{(S)-2-[(R)-2-Cyclopentylmethyl-3-(formyl-hydroxy-amino)-propionylamino]-3,3dimethyl-butyryl}-piperidin-4-yl)-benzamide] | 6.3 (≈ 12.2 µM) | 0.4 (≈ 0.777 µM) | 12.5 (≈ 24.3 µM) | 0.1 (≈ 0.194 µM) | 6.3 (≈ 12.2 µM) | – | – | – | – | – | – |
| CC(C)[C@H](NC(=O)[C@H](CC1CCCC1)CN(O)C=O)C(=O)N1CCC(NC(=O)c2ccc(C#N)cc2)CC1 [Example 41, 4-Cyano-N-(1-{(S)-2-[(R)-2-cyclopentylmethyl-3-(formyl-hydroxy-amino)-propionylamino]-3-methyl-butyryl}-piperidin-4-yl)benzamide] | 1.6 (≈ 3.04 µM) | 0.4 (≈ 0.761 µM) | 6.3 (≈ 12 µM) | 0.4 (≈ 0.761 µM) | 3.1 (≈ 5.9 µM) | – | – | – | – | – | – |
| CC(=O)NC[C@H]1CN(c2ccc(N3CCOCC3)c(F)c2)C(=O)O1 [Linezolid, reference compound] | 0.8 (≈ 2.37 µM) | 0.8 (≈ 2.37 µM) | 1.6 (≈ 4.74 µM) | 1.6 (≈ 4.74 µM) | 0.8 (≈ 2.37 µM) | – | – | – | – | – | – |
| CC(C)(C)[C@H](NC(=O)[C@H](CC1CCCC1)CN(O)C=O)C(=O)N1CCC(NC(=O)c2ccc(C(F)(F)F)cc2)CC1 [Example 28, N-(1-{(S)-2-[(R)-2-Cyclopentylmethyl-3-(formyl-hydroxy-amino)-propionylamino]-3,3-dimethyl-4-butyryl}-piperidin-4-yl)-4-trifluoromethyl-benzamide] | 1.6 (≈ 2.75 µM) | 3.1 (≈ 5.32 µM) | 3.1 (≈ 5.32 µM) | 0.1 (≈ 0.172 µM) | 6.3 (≈ 10.8 µM) | – | – | – | – | – | – |
| CC(C)(C)[C@H](NC(=O)[C@H](CC1CCCC1)CN(O)C=O)C(=O)N1CCC(NC(=O)c2ccc(C#N)cc2)CC1 [Example 29, 4-Cyano-N-(1-{(S)-2-[(R)-2-cyclopentylmethyl-3-(formyl-hydroxy-amino)-propionylamino]-3,3-dimethyl-butyryl}-piperidin-4-yl)benzamide] | 1.6 (≈ 2.96 µM) | 0.1 (≈ 0.185 µM) | 3.1 (≈ 5.74 µM) | 0.1 (≈ 0.185 µM) | 3.1 (≈ 5.74 µM) | – | – | – | – | – | – |
| CC(C)C[C@H](CC(=O)NO)C(=O)N[C@H](C(=O)N1CCC(NC(=O)Cc2ccccc2)CC1)C(C)(C)C [Example 7, (R)-N^1-[(S)-2,2-Dimethyl-1-(4-phenylacetylamino-piperidine-1-carbonyl)-propyl]-N^4-hydroxy-2-isobutyl-succinamide] | – | – | – | – | – | > 4000 | – | – | – | – | – |
| CN[C@H](CC(C)C)C(=O)N[C@H]1C(=O)N[C@@H](CC(N)=O)C(=O)N[C@H]2C(=O)N[C@H]3C(=O)N[C@H](C(=O)N[C@H](C(=O)O)c4cc(O)cc(O)c4-c4cc3ccc4O)[C@H](O)c3ccc(c(Cl)c3)Oc3cc2cc(c3O[C@@H]2O[C@H](CO)[C@@H](O)[C@H](O)[C@H]2O[C@H]2C[C@](C)(N)[C@H](O)[C@H](C)O2)Oc2ccc(cc2Cl)[C@H]1O [Vancomycin, reference compound] | – | – | – | – | – | – | 0.8 (≈ 0.552 µM) | 0.8 (≈ 0.552 µM) | 3.1 (≈ 2.14 µM) | 1.6 (≈ 1.1 µM) | > 100 |

Reference: patent US20080234333A1, “Novel Hydroxamic Acid Derivative as Peptide Deformylase Inhibitor and Manufacturing Method Thereof” (priority 2005, published 2008)
